Half-life data for 91 compounds are collected here from PubChem BioAssay AID1963597 (National Center for Advancing Translational Sciences (NCATS), 2024).

For the data set, the system named is human liver microsomes, metabolic stability half-life. Description: NCATS Human Liver Microsomal (HLM) Stability Profiling. Particulars: higher = more stable; screened at 1 µM (by protocol). In short, it runs like this: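 Substrate depletion (in vitro t1/2): 1 µM compound with 0.5 mg/mL microsomes and NADPH regenerating system, phosphate buffer pH 7.4, 37 °C. Sampled at 0, 5, 10, 15, 30, 60 min into cold acetonitrile with albendazole internal standard for MS quantification.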
A general note: Liver microsomes are a subcellular fraction often used to study metabolism.

`NCCc1ccc(O)cc1` came in with a half-life above 120 min.

The compound `Cn1cc(-c2cnc3ccc4ccc(CS(=O)(=O)NCc5ccccn5)cc4c(=O)c3c2)cn1` returned a half-life of 17.1 min.

The compound `COc1cc(NS(=O)(=O)c2ccc(N)cc2)nc(OC)n1` gave a half-life above 120 min.

For the compound `O=C1CC[C@H](C(=O)N2CCCCC2)N1`, the half-life is above 120 min.

Consider `CC(C)C[C@H]1C(=O)N2CCC[C@H]2[C@]2(O)O[C@](NC(=O)[C@@H]3C=C4c5cccc6[nH]c(Br)c(c56)CC4N(C)C3)(C(C)C)C(=O)N12` (stereo partly specified), for which the half-life came to 0.89 min.

For `Cc1[nH]c(/C=C2\C(=O)Nc3cc(-c4ccccc4)ccc32)c(C)c1CCC(=O)O`, the half-life was above 120 min.

Take `COc1ccccc1N1CCNCC1`: the half-life was above 120 min.

For `CCN1C(=O)c2ccccc2C1Nc1ccc(OCCN2CCCCC2)cc1` (stereo unspecified), the half-life was 105 min.

`Nc1ccc(C(=O)Nc2cccc(-c3nc(N4CCOCC4)c4oc5ncccc5c4n3)c2)cn1`: the half-life was found to be 56.2 min.

In the case of `CCN(CC)C(C)C(=O)c1ccccc1` (stereo unspecified), the half-life was above 120 min.

Turning to `Cc1c(-c2ccnn2C)cc(C(=O)NCc2ccc(S(C)(=O)=O)cn2)c(=O)n1-c1cccc(C(F)(F)F)c1`, the half-life is above 120 min.

Take `C[C@H]1COc2c(C3(N)CC3)c(F)cc3c(=O)c(C(=O)O)cn1c23`: the half-life was above 120 min.

`COc1ccccc1OC[C@H](O)COC(N)=O` returned a half-life above 120 min.

In turn, `Cc1ccc(-c2nc3ccc(C)cn3c2CC(=O)N(C)C)cc1` registered a half-life above 120 min.

`CCN(CC)CCNc1ccc(CO)c2sc3ccccc3c(=O)c12` yielded a half-life of 90.3 min.

The compound `Cc1nc2c3ccccc3nc(NNC(=O)CCC(=O)N3CCN(c4ccccc4)CC3)n2n1` showed a half-life of 107 min.

`COc1ccc(NC(=O)Cn2ccn(-c3ccc(C)c(C)c3)c(=O)c2=O)cc1Cl` came in with a half-life above 120 min.

`CCn1ccnc1C[C@@H]1COc2ccccc2O1` displayed a half-life of 55.3 min.

Compound `Cc1ccc(O)cc1Nc1ccnc(Nc2cccc(C(N)=O)c2)n1` gave a half-life of 86.5 min.

In turn, `CC1=CC(=O)c2ccccc2C1=O` yielded a half-life of 11.4 min.

Take `COc1cc(C(C)=O)ccc1OCCCN1CCC(c2noc3cc(F)ccc23)CC1`: the half-life was found to be 25.1 min.

The compound `COC1CCN(C(=O)c2cc(Cc3n[nH]c(=O)c4ccccc34)ccc2F)CC1` yielded a half-life of 76.1 min.

`CO[C@@H](Cc1ccc(OCCc2nc(-c3ccccc3)oc2C)c2ccsc12)C(=O)O` showed a half-life of 72.2 min.

`CN1CCN(C(=O)c2ccc(Nc3nccc(-c4cccs4)n3)cc2Cl)CC1`: the half-life was found to be 19.2 min.

Compound `O=C(OC1C[C@@H]2CC3C[C@H](C1)N2CC3=O)c1c[nH]c2ccccc12` (stereo partly specified) yielded a half-life of 5.19 min.

In the case of `COc1ccc(Nc2cc(-c3cnc(N)nc3)nc(N3CCOCC3)n2)cn1`, the half-life was 39.3 min.

`COc1ccc(CCN(C)CCC[C@@](C#N)(c2cc(OC)c(OC)c(OC)c2)C(C)C)cc1OC` displayed a half-life of 7.68 min.

`Cc1cc(C)cc(-c2cnc3cc(Cl)c(-c4cccc(O)c4)cc3c2OCCCN)c1`: the half-life turned out to be 25.3 min.

`COc1cc(=O)n2c(c1C(=O)NCc1ccc3c(c1)OCO3)CCN(C(=O)c1ccc(C)cc1C)CC2` yielded a half-life of 34.4 min.

For `Cc1ccc(COC(=O)N2CC[C@@H](CNc3ncccn3)[C@@H](F)C2)cc1`, the half-life amounted to 64.9 min.

For `Cc1cc(OCc2nnc(SC3CCCC3)n2-c2cccnc2)ccc1-c1ccc(S(C)(=O)=O)cc1`, the half-life worked out at 1.66 min.

`O=C(CCc1nnc2n(Cc3ccc(Cl)cc3)c(=O)c3ccccc3n12)NCCC1=CCCCC1` gave a half-life of 1.05 min.

For the compound `CCOP(=S)(Oc1cnc(C(C)(C)C)nc1)OC(C)C` (stereo unspecified), the half-life was 11.1 min.

`Cc1c(N2C(=O)[C@@H]3[C@H](O)CCN3C2=O)ccc(C#N)c1Cl` came in with a half-life above 120 min.

In turn, `Cc1ccccc1C(C(=O)NC1CCCCC1)N(C(=O)CNc1ccc(C#N)cc1)c1cccc(F)c1` (stereo unspecified) returned a half-life of 2.58 min.

`CN1CCN(C(=O)Cc2cccn2-c2ccc(F)cc2)CC1`: the half-life is above 120 min.

In turn, `CCN1CCN(C(=O)C2Cn3cccc3C(=O)N2CC(C)C)CC1` (stereo unspecified) had a half-life above 120 min.

As to `Cc1cc(C)c(-n2cc(C)c3c(Cl)nc(C)nc32)c(C)c1`, the half-life came out at 10.1 min.

For the compound `CC(C)(CNC(=O)c1cccc(-c2noc(C(F)(F)F)n2)c1)c1coc(-c2ccccc2)n1`, the half-life is 33.1 min.

As for `CCn1cc(C(=O)O)c(=O)c2cc(F)c(N3CCN[C@@H](C)C3)c(F)c21`, the half-life was determined as 87.7 min.

`CCc1cc(-c2n[nH]c(C)c2-c2ccc3c(c2)OCCO3)c(O)cc1O` gave a half-life of 13.4 min.

In the case of `Cc1nn(C)c2c1C(c1ccc(C(F)(F)F)cc1)C(C#N)=C(N)O2` (stereo unspecified), the half-life is 11 min.

Turning to `COc1ccccc1CN[C@H]1C2CCN(CC2)[C@H]1C(c1ccccc1)c1ccccc1`, the half-life is 35 min.

As to `COc1ccc(-c2ccc3ncc4c(c3c2)n(-c2ccc(N3CCNCC3)c(C(F)(F)F)c2)c(=O)n4C)cn1`, the half-life was 36.3 min.

The compound `COc1ccc(CN2CCN(C(c3ccc(F)cc3)c3ccc(F)cc3)CC2)c(OC)c1OC` came in with a half-life of 13.1 min.

In the case of `O=C(O)c1ccc(-c2ccc(N3CCCCCC3)nc2)cc1`, the half-life was above 120 min.

As to `CN1c2cc(C(=O)Nc3ccc(C#N)cc3)ccc2C(=O)N2CCCCC21` (stereo unspecified), the half-life worked out at 44.3 min.

The compound `NC1=NCC2c3ccccc3Cc3ccccc3N12` (stereo unspecified) gave a half-life above 120 min.

`Cn1ncc(Cl)c1-c1cc(C(=O)N[C@H](CN)Cc2ccc(F)c(F)c2)sc1Cl`: the half-life worked out at 109 min.

Compound `N#Cc1ccc(C(=O)Nc2ccc(Cl)c(-c3nc4ncccc4o3)c2)c(F)c1` came in with a half-life of 10.3 min.

`c1ccc(-c2csc(N3CCOCC3)n2)cc1` showed a half-life of 3.95 min.

In the case of `O=C(Nc1ccc(-c2ccnc(Nc3ccc(N4CCOCC4)cc3)n2)cc1)C1CCCN1` (stereo unspecified), the half-life is above 120 min.

In the case of `CC(C)(C)c1ccc(S(=O)(=O)c2cnc(SCC(=O)Nc3ccc(F)c(Cl)c3)[nH]c2=O)cc1`, the half-life worked out at 73.1 min.

On to `CCCN(CCN1CCN(c2ccccc2OC)CC1)C1CCc2ncsc2C1` (stereo unspecified), for which the half-life turned out to be 2.54 min.

In turn, `O=C(N[C@@H]1CC[C@@H](c2cccc(F)c2F)CN(CC(F)(F)F)C1=O)N1CCC(n2c(=O)[nH]c3ncccc32)CC1` returned a half-life of 60.2 min.

Compound `CCC(=C(c1ccc(OCCN2CCCC2)cc1)c1ccc(OCCN2CCCC2)cc1)c1ccccc1` returned a half-life above 120 min.

Compound `O=Nc1c(-c2c(O)[nH]c3cc(Br)ccc23)[nH]c2ccccc12` gave a half-life of 19 min.

`CNc1nccc(-c2cccnc2Oc2cc(C(=O)Nc3cccc(C(F)(F)F)c3)ccc2C)n1` displayed a half-life of 11.3 min.

In turn, `CCCC(Nc1nc(-c2ccc(NC(=O)NCC)c(OC)c2)ncc1C)c1cccnc1` (stereo unspecified) came in with a half-life of 30.5 min.

`Cc1ccccc1NC(=O)Nc1cccs1` gave a half-life of 22.8 min.

In the case of `Cc1ccc(-c2cc3ncc(C(=O)c4cc([N+](=O)[O-])ccc4O)cn3n2)cc1`, the half-life turned out to be 4.91 min.

Consider `COc1cccc(C(=O)Nc2ccc3ncnc(N4CCCCC4)c3c2)c1`, for which the half-life turned out to be 5.03 min.

For `CCCc1nc(C)c2c(=O)[nH]c(-c3cc(S(=O)(=O)N4CCN(CC)CC4)ccc3OCC)nn12`, the half-life was above 120 min.

Take `CC(CN(C)C)CN1C2=C(CCCC2)SC2CCCCC21` (stereo unspecified): the half-life amounted to 14.3 min.

On to `CC(C)C(Br)C(=O)NC(N)=O` (stereo unspecified), for which the half-life was above 120 min.

For the compound `CC(C)CCCC(C)N` (stereo unspecified), the half-life was above 120 min.

`O=C(NCc1ccc(OC(F)(F)F)cc1)C1c2c(F)cccc2C(=O)N1CCc1ccccn1` (stereo unspecified) registered a half-life of 6.61 min.

As to `CCN1CCCC1CNC(=O)c1cc(S(=O)(=O)CC)c(N)cc1OC` (stereo unspecified), the half-life is above 120 min.

On to `Cn1c(=O)c(F)c(Nc2ccc(I)cc2F)c2c(=O)n(CC(O)CO)cnc21` (stereo unspecified), for which the half-life was above 120 min.

Turning to `OC1(c2ccc(Cl)cc2)CCNCC1`, the half-life is above 120 min.

Take `O=C(c1cnn(-c2cccc(F)c2)c1-n1cccc1)N1CCN(c2ccccc2F)CC1`: the half-life worked out at 9.4 min.

As for `CCOC(=O)c1ccc(Nc2nc3nonc3nc2Nc2cccc(C)c2C)cc1`, the half-life worked out at 10.7 min.

Take `CN(C)CCN(Cc1ccc(Cl)cc1)c1ccccn1`: the half-life is 18.8 min.

`CC(=O)NC[C@H]1CN(c2ccc(N3CCN(C(=O)CO)CC3)c(F)c2)C(=O)O1` yielded a half-life above 120 min.

As to `CCOP(=S)(OCC)Oc1nc(Cl)c(Cl)cc1Cl`, the half-life was found to be 1.81 min.

Take `Oc1cccc(O)c1O`: the half-life was above 120 min.

Regarding `CC1(C)O[C@@H]2C[C@H]3[C@@H]4CCC5=CC(=O)C=C[C@]5(C)[C@@]4(F)[C@@H](O)C[C@]3(C)[C@]2(C(=O)CO)O1`, the half-life was found to be 27.3 min.

The compound `c1ccc(-c2cnc(Nc3ccc(OCCN4CCCC4)cc3)s2)cc1` displayed a half-life of 103 min.

`Cc1ccc(C(=O)Oc2ccc(C(O)CNC(C)(C)C)cc2OC(=O)c2ccc(C)cc2)cc1` (stereo unspecified): the half-life came out at 2.27 min.

Compound `Cc1cc(C)c(/C=C2\C(=O)Nc3ccccc32)[nH]1` had a half-life of 11 min.

Turning to `CCOC(=O)c1ccc(OCCN2C[C@H](O)[C@@H](O)[C@H](O)[C@H]2CO)cc1`, the half-life is above 120 min.

In turn, `NS(=O)(=O)c1cc2c(cc1Cl)NC(CSCc1ccccc1)=NS2(=O)=O` registered a half-life of 29.2 min.

Consider `COc1ccc(-n2nc(CCC(=O)N(C)O)cc2-c2ccc(Cl)cc2)cc1`, for which the half-life turned out to be 39.1 min.

Turning to `CC(C)c1ccc2oc(-c3ccc(NC(=O)c4cc5ccccc5o4)cc3)nc2c1`, the half-life was found to be 25.3 min.

With `C#CCN(Cc1cc2c(=O)n(C)c(CN3CCN(C)CC3)nc2cc1Cl)c1ccc(C(=O)NCc2cccnc2)cc1`, the half-life was determined as 4.83 min.

As to `COc1ccc(C(=O)c2ccccc2O)c(O)c1`, the half-life turned out to be 8.9 min.

For `Cc1c(NC(=O)OCC2COCCN2)cn2ncnc(Nc3ccc4c(cnn4Cc4cccc(F)c4)c3)c12` (stereo unspecified), the half-life is above 120 min.

With `CCCSP(=S)(OCC)Oc1ccc(SC)cc1` (stereo unspecified), the half-life was above 120 min.

As to `NC(=O)c1ccc(Cc2c(-c3cccc(-c4ccccc4)c3)[nH]n(-c3nc(C(=O)O)cs3)c2=O)cc1`, the half-life was above 120 min.

`Cc1ccc(S(=O)(=O)NC(=O)NN2CCCCCC2)cc1` had a half-life above 120 min.

For the compound `COc1cc(C(=O)NCC2(N(C)C)CCCC2)cc(OC)c1OCc1ccccc1`, the half-life worked out at 38.3 min.

The term half-life denotes the time in which the quantity being followed falls by half.
